# In PubChem BioAssay (NCI):
#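 The compound was tested at five concentrations on cells cultured in 96-well plates, with a 48-hour exposure period. TGI: concentration producing complete growth inhibition.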
# Key:
# Test in all cases: NCI anticancer screen, dose series, 48 h
# [1] = tested on: T-47D breast
# [2] = tested on: HOP-62 NSCLC
# [3] = tested on: SNB-19 CNS
# [4] = tested on: K-562 leukemia
# [5] = tested on: U251 CNS
# [6] = tested on: A549 NSCLC
# [7] = tested on: NCI-H23 lung
# [8] = tested on: NCI-H522 lung
# [9] = tested on: ACHN renal
# [10] = tested on: NCI/ADR-RES ovarian
# [11] = tested on: OVCAR-3 ovarian
# [12] = tested on: DU-145 prostate
# [13] = tested on: IGROV1 ovarian
# [14] = tested on: UACC-257 melanoma
# [15] = tested on: CAKI-1 renal
# [16] = tested on: HCT-116 colon
# [17] = tested on: HS 578T breast
# [18] = tested on: MALME-3M melanoma
# [19] = tested on: SF-295 CNS
# [20] = tested on: HCC-2998 colon
# [21] = tested on: UO-31 renal
# [22] = tested on: OVCAR-4 ovarian
# [23] = tested on: SK-MEL-28 melanoma
# [24] = tested on: TK-10 renal
# [25] = tested on: NCI-H460 lung
# [26] = tested on: NCI-H226 lung
# [27] = tested on: LOX IMVI melanoma
# [28] = tested on: OVCAR-8 ovarian
# [29] = tested on: SF-268 CNS
# [30] = tested on: SNB-75 CNS
# [31] = tested on: SK-MEL-2 melanoma
# [32] = tested on: UACC-62 melanoma
# [33] = tested on: SW-620 colon
# [34] = tested on: MDA-MB-231 breast
# [35] = tested on: BT-549 breast
# [36] = tested on: MDA-N
# [37] = tested on: SK-MEL-5 melanoma
# [38] = tested on: 786-0 renal
# [39] = tested on: KM12 colon
# [40] = tested on: SK-OV-3 ovarian
# [41] = tested on: A498 renal
# [42] = tested on: MDA-MB-435
# [43] = tested on: HCT-15 colon
# [44] = tested on: MOLT-4 leukemia
# [45] = tested on: COLO 205 colon
# [46] = tested on: M14 melanoma
# [47] = tested on: HT29 colon
# [48] = tested on: PC-3 prostate
# [49] = tested on: HOP-92 NSCLC
# [50] = tested on: OVCAR-5 ovarian
# [51] = tested on: RXF 393 renal
# [52] = tested on: SN12C renal
# [53] = tested on: RPMI-8226 leukemia
# [54] = tested on: SR leukemia
# [55] = tested on: CCRF-CEM leukemia
# [56] = tested on: EKVX NSCLC
# [57] = tested on: MCF7 breast
# [58] = tested on: HL-60(TB) leukemia
# [59] = tested on: SF-539 CNS
structure (smiles),measurement,setting,value
CSc1nc2c(c(N(C)C)n1)C=Nn1c(nc3ccccc31)S2,TGI,[1],> 100 µM
same,TGI,[2],> 100 µM
same,TGI,[3],> 100 µM
same,TGI,[4],> 100 µM
same,TGI,[5],> 100 µM
same,TGI,[6],> 100 µM
same,TGI,[7],> 100 µM
same,TGI,[8],> 100 µM
same,TGI,[9],> 100 µM
same,TGI,[10],> 100 µM
same,TGI,[11],> 100 µM
same,TGI,[12],> 100 µM
same,TGI,[13],> 100 µM
same,TGI,[14],> 100 µM
same,TGI,[15],> 100 µM
same,TGI,[16],> 100 µM
same,TGI,[17],> 100 µM
same,TGI,[18],> 100 µM
same,TGI,[19],> 100 µM
same,TGI,[20],> 100 µM
same,TGI,[21],> 100 µM
same,TGI,[22],> 100 µM
same,TGI,[23],> 100 µM
same,TGI,[24],> 100 µM
same,TGI,[25],> 100 µM
same,TGI,[26],> 100 µM
same,TGI,[27],> 100 µM
same,TGI,[28],> 100 µM
same,TGI,[29],> 100 µM
same,TGI,[30],> 100 µM
same,TGI,[31],> 100 µM
same,TGI,[32],> 100 µM
same,TGI,[33],> 100 µM
same,TGI,[34],> 100 µM
same,TGI,[35],> 100 µM
same,TGI,[36],> 100 µM
same,TGI,[37],> 100 µM
same,TGI,[38],> 100 µM
same,TGI,[39],> 100 µM
same,TGI,[40],> 100 µM
same,TGI,[41],> 100 µM
same,TGI,[42],> 100 µM
same,TGI,[43],> 100 µM
same,TGI,[44],> 100 µM
same,TGI,[45],> 100 µM
same,TGI,[46],> 100 µM
same,TGI,[47],> 100 µM
same,TGI,[48],> 100 µM
same,TGI,[49],89.4 µM
same,TGI,[50],> 100 µM
same,TGI,[51],> 100 µM
same,TGI,[52],> 100 µM
same,TGI,[53],> 100 µM
Cc1ncc([N+](=O)[O-])n1CCN(C)CCCCn1ccnc1[N+](=O)[O-],TGI,[1],> 100 µM
same,TGI,[2],> 100 µM
same,TGI,[54],> 100 µM
same,TGI,[3],> 100 µM
same,TGI,[4],> 100 µM
same,TGI,[5],> 100 µM
same,TGI,[6],> 100 µM
same,TGI,[7],> 100 µM
same,TGI,[9],> 100 µM
same,TGI,[11],> 100 µM
same,TGI,[55],> 100 µM
same,TGI,[12],> 100 µM
same,TGI,[14],> 100 µM
same,TGI,[56],> 100 µM
same,TGI,[15],> 100 µM
same,TGI,[16],> 100 µM
same,TGI,[17],> 100 µM
same,TGI,[18],> 100 µM
same,TGI,[19],> 100 µM
same,TGI,[20],> 100 µM
same,TGI,[21],> 100 µM
same,TGI,[22],> 100 µM
same,TGI,[23],> 100 µM
same,TGI,[57],> 100 µM
same,TGI,[24],> 100 µM
same,TGI,[25],> 100 µM
same,TGI,[26],> 100 µM
same,TGI,[58],> 100 µM
same,TGI,[27],> 100 µM
same,TGI,[28],> 100 µM
same,TGI,[29],> 100 µM
same,TGI,[30],> 100 µM
same,TGI,[31],> 100 µM
same,TGI,[32],> 100 µM
same,TGI,[33],> 100 µM
same,TGI,[34],> 100 µM
same,TGI,[35],> 100 µM
same,TGI,[36],> 100 µM
same,TGI,[37],> 100 µM
same,TGI,[38],> 100 µM
same,TGI,[39],> 100 µM
same,TGI,[40],> 100 µM
same,TGI,[41],> 100 µM
same,TGI,[42],> 100 µM
same,TGI,[43],> 100 µM
same,TGI,[44],> 100 µM
same,TGI,[45],> 100 µM
same,TGI,[46],> 100 µM
same,TGI,[47],> 100 µM
same,TGI,[48],> 100 µM
same,TGI,[50],> 100 µM
same,TGI,[51],> 100 µM
same,TGI,[52],> 100 µM
same,TGI,[53],> 100 µM
same,TGI,[59],> 100 µM
